This is an account of results in US5726195A, “Aminoacyl adenylate mimics as novel antimicrobial and antiparasitic agents” (Cubist Pharmaceuticals, Inc., priority 1996, dated 1998).

Values after ≈ are worked out from the molar mass of the structure shown. Bounds are passed on as bounds.

The subject of test [1] is isoleucyl-tRNA synthetase. Particulars: Gram positive bacterial pathogens such as Staphylococcus aureus; cited from earlier work.
In test [2] the target is E. Coli. IleRS (isoleucyl-tRNA synthetase) (Escherichia coli, UniProt P00956). Put plainly: Inhibition of isoleucyl-tRNA synthetase (aminoacylation of tRNA with [3H]isoleucine). Type of test: biochemical. Particulars: E. coli enzyme; irreversible inhibitors: values are 50% of the active enzyme concentration; read-out: IC50 E.Coli. IleRS. In short, it runs like this:
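Enzyme (0.08-2.0 nM, preferably 0.4 nM) preincubated 20 min at 25° C. with compound, then reacted at 25° C. with 4 mM ATP, 5-20 μM [3H]isoleucine, 90 μM crude or 2 μM specific tRNA in HEPES pH 7.5. TCA-precipitable radioactivity counted; IC50 relative to uninhibited activity.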

The test system of the next test is B. subtilis ATCC 6633. In words: Whole cell antimicrobial screen, MIC. Particulars: Bacillus subtilis, ATCC6633. The format is cell-based. The method in brief: (§1)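 Broth microdilution per NCCLS M7-A3: 2-fold compound dilutions (0.1 μg/mL-500 μg/mL final, DMSO ≤1%) incubated with 5×10^4 cells in appropriate medium overnight at 30° C.-37° C. Growth read as optical density; MIC taken as the lowest concentration inhibiting growth.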

A further test has as its system C. albicans ATCC 10231. In words: Whole cell antimicrobial screen, MIC. Particulars: Candida albicans, ATCC10231. Type of test: cell-based. The method in brief: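 MIC = lowest compound concentration inhibiting growth, judged from optical density after overnight incubation at 30° C.-37° C. Inoculum was 5×10^4 cells per well in media such as Mueller-Hinton Broth, with twofold dilutions spanning 0.1 μg/mL-500 μg/mL.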

The next test deals with E. faecalis ATCC 33011. In words: Whole cell antimicrobial screen, MIC. The format is cell-based. Particulars: Enterococcus faecalis, ATCC33011. In short, it runs like this:
as §1

The next test concerns E. faecium ATCC 6569. In words: Whole cell antimicrobial screen, MIC. Type of test: cell-based. Particulars: Enterococcus faecium, ATCC6569. In short, it runs like this:
as §1

Another test deals with K. pneumonia ATCC 4352. In words: Whole cell antimicrobial screen, MIC. The format is cell-based. Particulars: Klebsiella pneumoniae, ATCC4352. In short, it runs like this: as §1
Test [3] relates to M. catarrhalis ATCC 25240. In words: Whole cell antimicrobial screen, MIC. The format is cell-based. The note with it: Moraxella catarrhalis, ATCC25240. The method in brief: as §1
The next test has as its system S. aureus ATCC 14154. In words: Whole cell antimicrobial screen, MIC. The format is cell-based. Particulars: Staphylococcus aureus, ATCC14154. The method in brief: as §1
The subject of a further test is S. aureus ATCC 6538P. In words: Whole cell antimicrobial screen, MIC. Type of test: cell-based. The note with it: Staphylococcus aureus, ATCC6538P. In short, it runs like this:
as §1

In test [4] the test system is S. epidermidis ATCC 33501. Put plainly: Whole cell antimicrobial screen, MIC. The format is cell-based. Particulars: Staphylococcus epidermidis, ATCC33501. The method in brief: as §1
For a further test, the system named is S. pneumonia ATCC 49619. In words: Whole cell antimicrobial screen, MIC. Type of test: cell-based. The method in brief: as §1
For a further test, the system named is S. pyogenes ATCC 8668. Put plainly: Whole cell antimicrobial screen, MIC. The format is cell-based. The note with it: Streptococcus pyogenes, ATCC8668. In short, it runs like this: as §1
For test [5], the system named is S. saprophyticus ATCC 35552. Put plainly: Whole cell antimicrobial screen, MIC. Particulars: Staphylococcus saprophyticus, ATCC35552. The format is cell-based. In short, it runs like this: as §1
A further test relates to H. influenza ATCC 49247. In words: Whole cell antimicrobial screen, MIC. Type of test: cell-based. The method in brief:
as §1

Chain of E. Coli. IleRS (isoleucyl-tRNA synthetase) (P00956 whole entry): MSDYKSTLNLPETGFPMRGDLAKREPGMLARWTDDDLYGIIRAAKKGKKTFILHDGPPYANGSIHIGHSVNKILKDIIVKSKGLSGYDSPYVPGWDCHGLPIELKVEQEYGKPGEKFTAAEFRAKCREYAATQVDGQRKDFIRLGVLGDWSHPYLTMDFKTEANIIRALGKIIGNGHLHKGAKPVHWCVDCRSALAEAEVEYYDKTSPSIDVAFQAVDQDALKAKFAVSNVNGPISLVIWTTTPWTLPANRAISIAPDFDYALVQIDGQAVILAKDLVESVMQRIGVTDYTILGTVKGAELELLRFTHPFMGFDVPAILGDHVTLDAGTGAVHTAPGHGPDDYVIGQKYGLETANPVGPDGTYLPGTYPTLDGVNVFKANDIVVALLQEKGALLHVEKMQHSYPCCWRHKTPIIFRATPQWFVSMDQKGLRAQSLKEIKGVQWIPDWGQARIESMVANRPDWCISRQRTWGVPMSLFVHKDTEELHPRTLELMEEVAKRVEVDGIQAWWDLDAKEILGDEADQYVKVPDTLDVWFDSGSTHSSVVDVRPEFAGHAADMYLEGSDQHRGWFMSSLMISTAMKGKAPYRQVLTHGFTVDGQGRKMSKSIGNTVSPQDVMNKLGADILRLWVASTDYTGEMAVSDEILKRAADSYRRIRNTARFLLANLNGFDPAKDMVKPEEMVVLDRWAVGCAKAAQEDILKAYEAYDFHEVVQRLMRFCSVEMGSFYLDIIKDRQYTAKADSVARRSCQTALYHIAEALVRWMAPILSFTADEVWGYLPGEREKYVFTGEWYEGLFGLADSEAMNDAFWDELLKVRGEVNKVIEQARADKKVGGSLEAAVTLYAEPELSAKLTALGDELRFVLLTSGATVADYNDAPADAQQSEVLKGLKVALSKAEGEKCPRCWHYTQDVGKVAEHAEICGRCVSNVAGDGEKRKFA

`CC(=CC(=O)OCCCCCCCCC(=O)O)CC1OCC(CC2OC2C(C)C(C)O)C(O)C1O` (stereo not shown) [Pseudomonic acid A]: the “inhibition of isoleucyl adenylate formation” value in test [1] was “inhibits isoleucyl adenylate formation”.

Regarding `CC[C@H](C)[C@H](N)C(=O)NS(=O)(=O)OC[C@H]1O[C@@H](CCn2nnc(-c3ccc(-c4ccccc4C)c(C)c3)n2)[C@H](O)[C@@H]1O` [XXII], the half-maximal inhibitory concentration (IC50) (commonly the concentration at which inhibition is half-maximal) in test [2] turned out to be 11 nM. Also, the MIC with B. subtilis ATCC 6633 is 25 µg/mL (≈ 41.5 µM); with C. albicans ATCC 10231, over 500 µg/mL; against E. faecalis ATCC 33011, 200 µg/mL (≈ 332 µM); against E. faecium ATCC 6569, 100 µg/mL (≈ 166 µM); with K. pneumonia ATCC 4352 it was 100 µg/mL (≈ 166 µM); in test [3], 50 µg/mL (≈ 83 µM). Moreover, the MIC is 25 µg/mL (≈ 41.5 µM) in the test on S. aureus ATCC 14154; 25 µg/mL (≈ 41.5 µM) against S. aureus ATCC 6538P; 5 µg/mL (≈ 8.3 µM) in [4]; 25 µg/mL (≈ 41.5 µM) in the test on S. pneumonia ATCC 49619; 10 µg/mL (≈ 16.6 µM) in the test on S. pyogenes ATCC 8668; 10 µg/mL (≈ 16.6 µM) in [5].

Take `CC[C@H](C)[C@H](N)C(=O)NS(=O)(=O)OC[C@H]1O[C@@H](CCn2nnc(-c3ccc(-c4ccccc4)c(C)c3)n2)[C@H](O)[C@@H]1O` [XX]: in test [2], the 50% inhibitory concentration (IC50) was 0.6 nM. Besides, the MIC was 50 µg/mL (≈ 84.9 µM) against B. subtilis ATCC 6633; over 500 µg/mL in the test with C. albicans ATCC 10231; 500 µg/mL (≈ 849 µM) against E. faecalis ATCC 33011; 100 µg/mL (≈ 170 µM) against E. faecium ATCC 6569; over 500 µg/mL in the test with H. influenza ATCC 49247; 50 µg/mL (≈ 84.9 µM) against K. pneumonia ATCC 4352. In addition, the MIC in test [3] was 25 µg/mL (≈ 42.5 µM); in the test with S. aureus ATCC 14154, 50 µg/mL (≈ 84.9 µM); in the test on S. aureus ATCC 6538P, 50 µg/mL (≈ 84.9 µM); in [4], 25 µg/mL (≈ 42.5 µM); in [5], 25 µg/mL (≈ 42.5 µM).

For the compound `CC[C@H](C)[C@H](N)C(=O)NS(=O)(=O)OC[C@H]1O[C@@H](CCn2nnc(-c3ccc(Oc4ccc(C(=O)OCc5ccccc5)cc4)cc3)n2)[C@H](O)[C@@H]1O` [XI], the IC50 in [2] came to 109 nM. For the same compound, the MIC in the test with C. albicans ATCC 10231 was over 500 µg/mL; in the test with E. faecalis ATCC 33011, over 500 µg/mL; against E. faecium ATCC 6569, 25 µg/mL (≈ 34.5 µM); in the test with H. influenza ATCC 49247, 25 µg/mL (≈ 34.5 µM); in the test with S. aureus ATCC 14154, 25 µg/mL (≈ 34.5 µM); in the test with S. aureus ATCC 6538P, 10 µg/mL (≈ 13.8 µM). The MIC in [4] worked out at 5 µg/mL (≈ 6.9 µM); against S. pneumonia ATCC 49619 it was 50 µg/mL (≈ 69 µM); with S. pyogenes ATCC 8668, 5 µg/mL (≈ 6.9 µM); in [5], 10 µg/mL (≈ 13.8 µM).
